From US6525001B1, “Substituted pyrimidine and pyridine herbicides” (Mid-American Commercialization Corporation, priority 1997, dated 2003)

What was measured:
Assay in all cases: Test B pre-/postemergence
Assay type in all cases: in vivo
Set-up in all cases: key: 0 is no effect; 10 is complete control
[1] = tested on: momingglory (Ipomoea hederacea)
In short: (§1)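 Seeds were planted and sprayed preemergence, while plants at 2 to 18 cm (1- to 4-leaf stage) were sprayed postemergence at the same time, with test chemical in a non-phytotoxic solvent mixture containing surfactant. After twelve to sixteen days in a greenhouse, injury was rated visually against untreated controls on a 0–10 scale.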

[2] = tested on: bedstraw (Galium aparine)
In short: as §1

corn (Zea mays) = tested on: corn (Zea mays)
In short: as §1

[3] = tested on: sugar beet (Beta vulgaris)
In short: as §1

[4] = tested on: broadleaf signalgrass (Brachiaria decumbens)
In short: as §1

soybean (Glycine max) = tested on: soybean (Glycine max)
In short: as §1

[5] = tested on: wheat (Triticum aestivum)
In short: as §1

[6] = tested on: giant foxtail (Setaria faberii)
In short: as §1

[7] = tested on: crabgrass (Digitaria sanguinalis)
In short: as §1

[8] = tested on: blackgrass (Alopecurus myosuroides)
In short: as §1

rape (Brassica napus) = tested on: rape (Brassica napus)
In short: as §1

[9] = tested on: cocklebur (Xanthium strumarium)
In short: as §1

[10] = tested on: pigweed (Amaranthus retroflexus)
In short: as §1

[11] = tested on: velvetleaf (Abutilon theophrasti)
In short: as §1

[12] = Preemergence, Rate 62 g/ha, scale of 0 to 10

Cc1cnc(-n2ccc(C(F)(F)C(F)(F)F)n2)nc1C(=O)c1cccc(C(F)(F)F)c1 [Compound 68]
Plant response rating, Morningglory [1, 12]: 3 | Morningglory plant response rating ([1]; Rate 62 g/ha, Postemergence): 2 | Morningglory plant response rating ([1]; Rate 125 g/ha, Postemergence): 8 | Plant response rating, Morningglory ([1]; Rate 125 g/ha, Preemergence): 3 | Plant response rating, Morningglory ([1]; Rate 250 g/ha, Postemergence): 10 | Plant response rating, Morningglory ([1]; Rate 250 g/ha, Preemergence): 5 | Plant response rating, Morningglory ([1]; Rate 500 g/ha, Postemergence): 10 | Plant response rating, Morningglory ([1]; Rate 500 g/ha, Preemergence): 9 | Plant response rating, Bedstraw [2, 12]: 3 | Bedstraw plant response rating ([2]; Rate 62 g/ha, Postemergence): 5 | Bedstraw plant response rating ([2]; Rate 125 g/ha, Postemergence): 6 | Plant response rating, Bedstraw ([2]; Rate 125 g/ha, Preemergence): 5 | Plant response rating, Bedstraw ([2]; Rate 250 g/ha, Postemergence): 9 | Plant response rating, Bedstraw ([2]; Rate 250 g/ha, Preemergence): 6 | Plant response rating, Bedstraw ([2]; Rate 500 g/ha, Postemergence): 10 | Plant response rating, Bedstraw ([2]; Rate 500 g/ha, Preemergence): 6 | Plant response rating, Corn (corn (Zea mays); [12]): 0 | Corn plant response rating (corn (Zea mays); Rate 62 g/ha, Postemergence): 1 | Corn plant response rating (corn (Zea mays); Rate 125 g/ha, Postemergence): 1 | Plant response rating, Corn (corn (Zea mays); Rate 125 g/ha, Preemergence): 1 | Plant response rating, Corn (corn (Zea mays); Rate 250 g/ha, Postemergence): 2 | Plant response rating, Corn (corn (Zea mays); Rate 250 g/ha, Preemergence): 1 | Plant response rating, Corn (corn (Zea mays); Rate 500 g/ha, Postemergence): 2 | Plant response rating, Corn (corn (Zea mays); Rate 500 g/ha, Preemergence): 1 | Plant response rating, Sugarbeets [3, 12]: 9 | Sugarbeets plant response rating ([3]; Rate 62 g/ha, Postemergence): 10 | Sugarbeets plant response rating ([3]; Rate 125 g/ha, Postemergence): 10 | Plant response rating, Sugarbeets ([3]; Rate 125 g/ha, Preemergence): 10 | Plant response rating, Sugarbeets ([3]; Rate 250 g/ha, Postemergence): 10 | Plant response rating, Sugarbeets ([3]; Rate 250 g/ha, Preemergence): 10 | Plant response rating, Sugarbeets ([3]; Rate 500 g/ha, Postemergence): 10 | Plant response rating, Sugarbeets ([3]; Rate 500 g/ha, Preemergence): 10 | B. signalgrass plant response rating ([4]; Rate 62 g/ha, Postemergence): 2 | B. signalgrass plant response rating ([4]; Rate 62 g/ha, Preemergence): 5 | B. signalgrass plant response rating ([4]; Rate 125 g/ha, Postemergence): 3 | Plant response rating, B. signalgrass ([4]; Rate 125 g/ha, Preemergence): 8 | Plant response rating, B. signalgrass ([4]; Rate 250 g/ha, Postemergence): 3 | Plant response rating, B. signalgrass ([4]; Rate 250 g/ha, Preemergence): 9 | Plant response rating, B. signalgrass ([4]; Rate 500 g/ha, Postemergence): 5 | Plant response rating, B. signalgrass ([4]; Rate 500 g/ha, Preemergence): 10 | Plant response rating, Soybean (soybean (Glycine max); [12]): 0 | Soybean plant response rating (soybean (Glycine max); Rate 62 g/ha, Postemergence): 3 | Soybean plant response rating (soybean (Glycine max); Rate 125 g/ha, Postemergence): 5 | Plant response rating, Soybean (soybean (Glycine max); Rate 125 g/ha, Preemergence): 1 | Plant response rating, Soybean (soybean (Glycine max); Rate 250 g/ha, Postemergence): 7 | Plant response rating, Soybean (soybean (Glycine max); Rate 250 g/ha, Preemergence): 2 | Plant response rating, Soybean (soybean (Glycine max); Rate 500 g/ha, Postemergence): 7 | Plant response rating, Soybean (soybean (Glycine max); Rate 500 g/ha, Preemergence): 2 | Plant response rating, Wheat [5, 12]: 1 | Wheat plant response rating ([5]; Rate 62 g/ha, Postemergence): 2 | Wheat plant response rating ([5]; Rate 125 g/ha, Postemergence): 2 | Plant response rating, Wheat ([5]; Rate 125 g/ha, Preemergence): 1 | Plant response rating, Wheat ([5]; Rate 250 g/ha, Postemergence): 2 | Plant response rating, Wheat ([5]; Rate 250 g/ha, Preemergence): 2 | Plant response rating, Wheat ([5]; Rate 500 g/ha, Postemergence): 4 | Plant response rating, Wheat ([5]; Rate 500 g/ha, Preemergence): 4 | Plant response rating, Giant foxtail [6, 12]: 3 | Giant foxtail plant response rating ([6]; Rate 62 g/ha, Postemergence): 1 | Giant foxtail plant response rating ([6]; Rate 125 g/ha, Postemergence): 2 | Plant response rating, Giant foxtail ([6]; Rate 125 g/ha, Preemergence): 6 | Plant response rating, Giant foxtail ([6]; Rate 250 g/ha, Postemergence): 2 | Plant response rating, Giant foxtail ([6]; Rate 250 g/ha, Preemergence): 9 | Plant response rating, Giant foxtail ([6]; Rate 500 g/ha, Postemergence): 3 | Plant response rating, Giant foxtail ([6]; Rate 500 g/ha, Preemergence): 10 | Plant response rating, Crabgrass [7, 12]: 3 | Crabgrass plant response rating ([7]; Rate 62 g/ha, Postemergence): 5 | Crabgrass plant response rating ([7]; Rate 125 g/ha, Postemergence): 8 | Plant response rating, Crabgrass ([7]; Rate 125 g/ha, Preemergence): 4 | Plant response rating, Crabgrass ([7]; Rate 250 g/ha, Postemergence): 8 | Plant response rating, Crabgrass ([7]; Rate 250 g/ha, Preemergence): 9 | Plant response rating, Crabgrass ([7]; Rate 500 g/ha, Postemergence): 8 | Plant response rating, Crabgrass ([7]; Rate 500 g/ha, Preemergence): 10 | Plant response rating, Blackgrass [8, 12]: 3 | Blackgrass plant response rating ([8]; Rate 62 g/ha, Postemergence): 2 | Blackgrass plant response rating ([8]; Rate 125 g/ha, Postemergence): 3 | Plant response rating, Blackgrass ([8]; Rate 125 g/ha, Preemergence): 5 | Plant response rating, Blackgrass ([8]; Rate 250 g/ha, Postemergence): 4 | Plant response rating, Blackgrass ([8]; Rate 250 g/ha, Preemergence): 7 | Plant response rating, Blackgrass ([8]; Rate 500 g/ha, Postemergence): 5 | Plant response rating, Blackgrass ([8]; Rate 500 g/ha, Preemergence): 7 | Plant response rating, Rape (rape (Brassica napus); [12]): 2 | Rape plant response rating (rape (Brassica napus); Rate 62 g/ha, Postemergence): 6 | Rape plant response rating (rape (Brassica napus); Rate 125 g/ha, Postemergence): 6 | Plant response rating, Rape (rape (Brassica napus); Rate 125 g/ha, Preemergence): 3 | Plant response rating, Rape (rape (Brassica napus); Rate 250 g/ha, Preemergence): 4 | Plant response rating, Rape (rape (Brassica napus); Rate 500 g/ha, Postemergence): 7 | Plant response rating, Rape (rape (Brassica napus); Rate 500 g/ha, Preemergence): 8 | Plant response rating, Cocklebur [9, 12]: 0 | Cocklebur plant response rating ([9]; Rate 62 g/ha, Postemergence): 3 | Plant response rating, Cocklebur ([9]; Rate 250 g/ha, Postemergence): 7 | Plant response rating, Cocklebur ([9]; Rate 250 g/ha, Preemergence): 2 | Plant response rating, Cocklebur ([9]; Rate 500 g/ha, Postemergence): 7 | Plant response rating, Cocklebur ([9]; Rate 500 g/ha, Preemergence): 8 | Plant response rating, Redroot pigweed [10, 12]: 8 | Redroot pigweed plant response rating ([10]; Rate 62 g/ha, Postemergence): 9 | Redroot pigweed plant response rating ([10]; Rate 125 g/ha, Postemergence): 10 | Plant response rating, Redroot pigweed ([10]; Rate 125 g/ha, Preemergence): 9 | Plant response rating, Redroot pigweed ([10]; Rate 250 g/ha, Postemergence): 10 | Plant response rating, Redroot pigweed ([10]; Rate 250 g/ha, Preemergence): 10 | Plant response rating, Redroot pigweed ([10]; Rate 500 g/ha, Postemergence): 10 | Plant response rating, Redroot pigweed ([10]; Rate 500 g/ha, Preemergence): 10 | Plant response rating, Velvetleaf [11, 12]: 2 | Velvetleaf plant response rating ([11]; Rate 62 g/ha, Postemergence): 6 | Velvetleaf plant response rating ([11]; Rate 125 g/ha, Postemergence): 7 | Plant response rating, Velvetleaf ([11]; Rate 125 g/ha, Preemergence): 7 | Plant response rating, Velvetleaf ([11]; Rate 250 g/ha, Postemergence): 7 | Plant response rating, Velvetleaf ([11]; Rate 250 g/ha, Preemergence): 7 | Plant response rating, Velvetleaf ([11]; Rate 500 g/ha, Postemergence): 8 | Plant response rating, Velvetleaf ([11]; Rate 500 g/ha, Preemergence): 8
